This is an account of results in patent publication US20260335451A1, “SOLID ORAL DOSAGE FORMS OF ESTROGEN RECEPTOR DEGRADERS” (Arvinas Operations, Inc., priority 2023, published 2026).

The nature of data set [1]: Biopharmaceutics Classification System class. Type of data set: physicochemical.
Data set [2] has as its target T1, ER (Homo sapiens, UniProt P03372).
T1 construct: PROTAC recruits cereblon (CRBN) E3 ligase
T1 sequence (P03372 1-595): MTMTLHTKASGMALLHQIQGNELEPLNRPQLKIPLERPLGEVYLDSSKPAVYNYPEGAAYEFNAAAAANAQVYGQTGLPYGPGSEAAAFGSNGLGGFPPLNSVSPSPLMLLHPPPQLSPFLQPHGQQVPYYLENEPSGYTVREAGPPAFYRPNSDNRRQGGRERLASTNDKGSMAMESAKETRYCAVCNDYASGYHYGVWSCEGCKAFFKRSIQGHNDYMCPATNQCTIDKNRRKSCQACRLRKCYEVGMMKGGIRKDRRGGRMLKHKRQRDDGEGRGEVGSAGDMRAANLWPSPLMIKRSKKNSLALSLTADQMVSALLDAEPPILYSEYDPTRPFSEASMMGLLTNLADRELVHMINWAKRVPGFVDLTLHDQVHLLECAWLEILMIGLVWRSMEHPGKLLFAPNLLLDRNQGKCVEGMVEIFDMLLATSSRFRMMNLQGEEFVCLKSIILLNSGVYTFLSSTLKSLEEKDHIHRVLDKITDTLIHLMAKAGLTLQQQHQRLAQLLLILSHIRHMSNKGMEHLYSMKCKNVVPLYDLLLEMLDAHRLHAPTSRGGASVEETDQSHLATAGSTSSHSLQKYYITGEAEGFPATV
The experiment in a line: ER degradation. The settings on record: evidence in words.

Data set [3] in a line: Preclinical exposure of epimer Compound B vs Compound A. The settings on record: preclinical data; epimer formed by interconversion of Compound A. Type of data set: in vivo.

For `O=C1CC[C@H](N2Cc3cc(N4CCN(CC5CCN(c6ccc([C@@H]7c8ccc(O)cc8CC[C@@H]7c7ccccc7)cc6)CC5)CC4)ccc3C2=O)C(=O)N1` [Compound A, (S)-3-(5-(4-((1-(4-((1R,2S)-6-hydroxy-2-phenyl-1,2,3,4-tetrahydronaphthalen-1-yl)phenyl)piperidin-4-yl)methyl)piperazin-1-yl)-1-oxoisoindolin-2-yl)piperidine-2,6-dione], in data set [1], the “permeability (in words, BCS)” value is reported as “low permeability” and the “solubility (in words, BCS)” value is “low solubility”.

Consider `O=C1CC[C@@H](N2Cc3cc(N4CCN(CC5CCN(c6ccc([C@@H]7c8ccc(O)cc8CC[C@@H]7c7ccccc7)cc6)CC5)CC4)ccc3C2=O)C(=O)N1` [Compound B], for which the ER degradation result in data set [2] is listed as “does not degrade the ER”. For the same compound, the “exposure of Compound B compared to Compound A” value in data set [3] is on record as < 26%.
